Laboratory results published in patent US9505798B2, “Steroid compounds as RORyt modulators and uses thereof” (New York University, priority 2010, dated 2016).

Molecular target: T1, human RORγt (Homo sapiens, UniProt P51449)
T1 construct: expressed in transfected cells; host or cells: human CD4+ T cells (cord blood or adult blood), lentiviral HDV-IRES-GFP/HSA vectors
T1 sequence (P51449 1-497 isoform P51449-2): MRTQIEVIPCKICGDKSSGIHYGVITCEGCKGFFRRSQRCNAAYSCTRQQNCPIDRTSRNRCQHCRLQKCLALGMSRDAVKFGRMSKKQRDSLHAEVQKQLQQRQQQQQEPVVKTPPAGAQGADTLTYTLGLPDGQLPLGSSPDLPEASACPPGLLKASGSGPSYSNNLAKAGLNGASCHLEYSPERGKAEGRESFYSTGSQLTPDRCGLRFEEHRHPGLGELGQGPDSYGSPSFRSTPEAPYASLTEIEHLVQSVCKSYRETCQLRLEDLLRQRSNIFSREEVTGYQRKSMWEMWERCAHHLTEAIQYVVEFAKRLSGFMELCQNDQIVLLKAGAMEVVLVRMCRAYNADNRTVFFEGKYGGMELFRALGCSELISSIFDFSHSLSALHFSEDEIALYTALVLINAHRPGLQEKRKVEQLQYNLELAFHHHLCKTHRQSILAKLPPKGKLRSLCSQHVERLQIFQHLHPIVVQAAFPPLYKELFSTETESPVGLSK
Test: IL-17a induction in human CD4+ T cells transduced with RORαd, RORβ or RORγt
Type: cell-based
Procedure: GFP expressing cells were gated for analysis. DMSO, Dig(dhd) (40 μM) or Dig(sal) (10 μM) was added 6-8 h after viral transduction. c, Flow cytometry of the production of IL-17a and IFN-γ by human naive cord blood T cells cultured for six days in the presence of IL-2, IL-23, and IL-1β, with various concentrations of TGF-β. DMSO, Dig(dhd), or Dig(sal) at indicated concentrations (μM) was added 16 h after cytokine addition.
Blood samples were obtained from the New York Blood Center. Mononuclear cells were prepared from buffy coats from healthy adult donors or from cord blood, using FicollPAQUE gradients. CD4^+ T cells were magnetically selected (autoMACS, Miltenyi). Adult memory CD4^+ T cell subsets were further purified as CD3^+CD4^+CD25^− CD45RO^+CCR6^+CD161^+ by cell sorting on a FACSAria (BD). Naive CD4^+ T cells were isolated from cord blood as CD3^+CD4^+CD45RA^+HLA-DR^−CD25^−DAPI^−. Memory cells were activated with anti-CD3/CD28 coated beads (1 bead/cell) in T cell media (see above) supplemented with 100 U/mL IL-2 (Peprotech), 10 ng/mL IL-1b and 10 ng/mL IL-23 (eBioscience). Naive cells were activated with anti-CD3/CD28 beads and cultured with the same cytokines, and TGF-b (0, 0.1, 1, or, 10 ng/mL) (Peprotech), in XVIVO-20 (Lonza) media. […] Naive CD4^+ T cells, cultured in XVIVO-20 media supplemented 100 U/mL IL-2 (Peprotech), were transduced with RORad-IRES-GFP or RORγt-IRES-GFP on day 1 and analyzed on day 6. GFP expressing cells were gated for analysis. DMSO or compounds were added 6-8 hours after the viral transduction.
Blood samples were obtained from the New York Blood Center. Mononuclear cells were prepared from buffy coats from healthy adult donors or from cord blood, using FicollPAQUE gradients. CD4^+ T cells were magnetically selected (autoMACS, Miltenyi). Adult memory CD4+ T cell subsets were further purified as CD3^+CD4^+CD25^−CD45RO^+CCR6^+CD161^+ by cell sorting on a FACSAria (BD). […] Naive CD4+ T cells, cultured in XVIVO-20 media supplemented with 100 U/mL IL-2 (Peprotech), were transduced with RORαd-IRES-GFP or RORγt-IRES-GFP on day 1 and analyzed on day 6. […]

| Structure (SMILES) | RORγt-mediated IL-17a induction (versus RORαd) (40 μM, FIG. 3b) | RORαd-, β- or γt-mediated induction of IL-17a (human T cells expressing murine Na+/K+-ATPase) |
| --- | --- | --- |
| CC1O[C@@H](OC2C(C)O[C@H](OC3C(C)O[C@@H](O[C@H]4CC[C@@]5(C)[C@H](CC[C@@H]6[C@@H]5C[C@@H](O)[C@]5(C)[C@@H](C(CO)CCO)CC[C@]65O)C4)C[C@H]3O)C[C@H]2O)C[C@@H](O)C1O (some centres unmarked) [Compound 13, 20,22-Dihydrodigoxin-21,23-diol] | selectively suppressed |  |
| C[C@H]1O[C@@H](O[C@H]2[C@@H](O)C[C@H](O[C@H]3[C@@H](O)C[C@H](O[C@H]4CC[C@@]5(C)[C@H](CC[C@@H]6[C@@H]5C[C@@H](O)[C@]5(C)[C@@H](C7=CC(=O)OC7)CC[C@]65O)C4)O[C@@H]3C)O[C@@H]2C)C[C@H](O)[C@@H]1O [Digoxin] |  | inhibited only RORγt-mediated induction of IL-17a |
